Laboratory results reported in the NIST ThermoML archive (doi:10.1021/je034076x).

Assays:
[1] = excess molar enthalpy (molar enthalpy of mixing); xn = mol fraction of the nth substance listed; conditions: 101.3 kPa, Liquid, Flow calorimetry
[2] = xn = mol fraction of the nth substance listed; conditions: 101.3 kPa, Liquid; for viscosity: Capillary tube (Ostwald / Ubbelohde) method; for speed of sound: Pulse-echo method; for mass density: Vibrating tube method

OCC(F)(F)F [2,2,2-trifluoroethanol] + C1CCOC1
Conditions | excess molar enthalpy [kcal/mol] | mass density [kg/m3] | speed of sound [m/s] | viscosity [mPa·s]
[1], 283.15 K, x2 = 0.053 | -0.0915 | – | – | –
[1], 283.15 K, x2 = 0.107 | -0.173 | – | – | –
[1], 283.15 K, x2 = 0.212 | -0.295 | – | – | –
[1], 283.15 K, x2 = 0.316 | -0.381 | – | – | –
[1], 283.15 K, x2 = 0.417 | -0.415 | – | – | –
[1], 283.15 K, x2 = 0.517 | -0.413 | – | – | –
[1], 283.15 K, x2 = 0.618 | -0.375 | – | – | –
[1], 283.15 K, x2 = 0.717 | -0.304 | – | – | –
[1], 283.15 K, x2 = 0.81 | -0.216 | – | – | –
[1], 283.15 K, x2 = 0.908 | -0.107 | – | – | –
[1], 283.15 K, x2 = 0.954 | -0.0509 | – | – | –
[1], 298.15 K, x2 = 0.053 | -0.113 | – | – | –
[1], 298.15 K, x2 = 0.107 | -0.224 | – | – | –
[1], 298.15 K, x2 = 0.212 | -0.369 | – | – | –
[1], 298.15 K, x2 = 0.316 | -0.45 | – | – | –
[1], 298.15 K, x2 = 0.417 | -0.479 | – | – | –
[1], 298.15 K, x2 = 0.517 | -0.467 | – | – | –
[1], 298.15 K, x2 = 0.618 | -0.418 | – | – | –
[1], 298.15 K, x2 = 0.717 | -0.341 | – | – | –
[1], 298.15 K, x2 = 0.81 | -0.237 | – | – | –
[1], 298.15 K, x2 = 0.908 | -0.117 | – | – | –
[1], 298.15 K, x2 = 0.954 | -0.0559 | – | – | –
[1], 313.15 K, x2 = 0.053 | -0.113 | – | – | –
[1], 313.15 K, x2 = 0.107 | -0.222 | – | – | –
[1], 313.15 K, x2 = 0.212 | -0.375 | – | – | –
[1], 313.15 K, x2 = 0.316 | -0.474 | – | – | –
[1], 313.15 K, x2 = 0.417 | -0.512 | – | – | –
[1], 313.15 K, x2 = 0.517 | -0.5 | – | – | –
[1], 313.15 K, x2 = 0.618 | -0.447 | – | – | –
[1], 313.15 K, x2 = 0.717 | -0.361 | – | – | –
[1], 313.15 K, x2 = 0.81 | -0.254 | – | – | –
[1], 313.15 K, x2 = 0.908 | -0.125 | – | – | –
[1], 313.15 K, x2 = 0.954 | -0.0614 | – | – | –
[2], 283.15 K, x2 = 0.1022 | – | – | – | 2.107
[2], 283.15 K, x2 = 0.1087 | – | 1336.89 | 897.7 | –
[2], 283.15 K, x2 = 0.2018 | – | – | – | 1.578
[2], 283.15 K, x2 = 0.2084 | – | 1277.4 | 932.6 | –
[2], 283.15 K, x2 = 0.299 | – | 1226.31 | 966.8 | –
[2], 283.15 K, x2 = 0.3033 | – | – | – | 1.246
[2], 283.15 K, x2 = 0.4037 | – | – | – | 1.037
[2], 283.15 K, x2 = 0.4038 | – | 1171.02 | 1010.1 | –
[2], 283.15 K, x2 = 0.4953 | – | 1125.37 | 1052.1 | –
[2], 283.15 K, x2 = 0.5014 | – | – | – | 0.8927
[2], 283.15 K, x2 = 0.5967 | – | 1076.79 | – | –
[2], 283.15 K, x2 = 0.6013 | – | – | 1104.4 | –
[2], 283.15 K, x2 = 0.6036 | – | – | – | 0.7821
[2], 283.15 K, x2 = 0.7004 | – | – | – | 0.7023
[2], 283.15 K, x2 = 0.7048 | – | 1027.26 | 1161.1 | –
[2], 283.15 K, x2 = 0.7958 | – | – | 1213.8 | –
[2], 283.15 K, x2 = 0.8048 | – | 982.37 | – | –
[2], 283.15 K, x2 = 0.8532 | – | – | – | 0.6208
[2], 283.15 K, x2 = 0.8868 | – | 946.79 | – | –
[2], 283.15 K, x2 = 0.9033 | – | – | – | 0.5846
[2], 283.15 K, x2 = 0.9058 | – | – | 1283.2 | –
[2], 283.15 K, x2 = 0.9657 | – | 913.1 | 1324.1 | –
[2], 298.15 K, x2 = 0.0362 | – | 1358.26 | – | –
[2], 298.15 K, x2 = 0.1022 | – | – | – | 1.467
[2], 298.15 K, x2 = 0.1041 | – | 1315.13 | – | –
[2], 298.15 K, x2 = 0.1106 | – | – | 854.6 | –
[2], 298.15 K, x2 = 0.2018 | – | – | – | 1.169
[2], 298.15 K, x2 = 0.2053 | – | 1255.19 | – | –
[2], 298.15 K, x2 = 0.2095 | – | – | 885 | –
[2], 298.15 K, x2 = 0.3019 | – | – | 917.9 | –
[2], 298.15 K, x2 = 0.3031 | – | 1201.4 | – | –
[2], 298.15 K, x2 = 0.3033 | – | – | – | 0.9632
[2], 298.15 K, x2 = 0.4018 | – | 1150.15 | – | –
[2], 298.15 K, x2 = 0.4037 | – | – | – | 0.8286
[2], 298.15 K, x2 = 0.4065 | – | – | 959.4 | –
[2], 298.15 K, x2 = 0.4986 | – | 1103.07 | – | –
[2], 298.15 K, x2 = 0.5014 | – | – | – | 0.7228
[2], 298.15 K, x2 = 0.5076 | – | – | 1003.3 | –
[2], 298.15 K, x2 = 0.5989 | – | 1055.77 | – | –
[2], 298.15 K, x2 = 0.6036 | – | – | – | 0.6432
[2], 298.15 K, x2 = 0.6172 | – | – | 1055.8 | –
[2], 298.15 K, x2 = 0.7004 | – | – | – | 0.5841
[2], 298.15 K, x2 = 0.7019 | – | 1009.19 | – | –
[2], 298.15 K, x2 = 0.7123 | – | – | 1104.9 | –
[2], 298.15 K, x2 = 0.7978 | – | 967.32 | – | –
[2], 298.15 K, x2 = 0.8205 | – | – | 1164.5 | –
[2], 298.15 K, x2 = 0.8532 | – | – | – | 0.5222
[2], 298.15 K, x2 = 0.899 | – | 924.33 | – | –
[2], 298.15 K, x2 = 0.9033 | – | – | – | 0.4959
[2], 298.15 K, x2 = 0.9042 | – | – | 1216.3 | –
[2], 313.15 K, x2 = 0.1022 | – | – | – | 1.057
[2], 313.15 K, x2 = 0.1024 | – | 1291.64 | 808.3 | –
[2], 313.15 K, x2 = 0.1991 | – | 1234.96 | 834.3 | –
[2], 313.15 K, x2 = 0.2018 | – | – | – | 0.8873
[2], 313.15 K, x2 = 0.3032 | – | 1178.51 | 868.4 | –
[2], 313.15 K, x2 = 0.3033 | – | – | – | 0.7583
[2], 313.15 K, x2 = 0.3554 | – | 1151.61 | 886.4 | –
[2], 313.15 K, x2 = 0.4037 | – | – | – | 0.6648
[2], 313.15 K, x2 = 0.4972 | – | 1082.56 | 942.6 | –
[2], 313.15 K, x2 = 0.5014 | – | – | – | 0.5936
[2], 313.15 K, x2 = 0.596 | – | 1037.96 | 985.9 | –
[2], 313.15 K, x2 = 0.6036 | – | – | – | 0.5356
[2], 313.15 K, x2 = 0.7004 | – | – | – | 0.4916
[2], 313.15 K, x2 = 0.7191 | – | 983.05 | 1045.5 | –
[2], 313.15 K, x2 = 0.7922 | – | 952.13 | 1082.8 | –
[2], 313.15 K, x2 = 0.8532 | – | – | – | 0.4431
[2], 313.15 K, x2 = 0.8937 | – | 909.37 | 1138.7 | –
[2], 313.15 K, x2 = 0.9033 | – | – | – | 0.4239
